Measurements reported in the supplement of paper PMC10331698.
± gives the standard deviation of the averaged measurements.

How the values were obtained:
Test in all cases: level (log10 ratio to DMSO vehicle control); higher = higher biomarker level / cell amount than vehicle control
Conditions in all cases: in DMSO
[1] = compound: O=C(O)C(F)(F)C(F)(F)C(F)(F)OC(F)(C(F)(F)F)C(F)(F)F [Perfluoro-4-isopropoxybutanoic acid]
Experimental: (§1)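 BioMAP Diversity Plus panel of 12 human primary cell co-culture systems (3C, 4H, LPS, SAg, BT, BF4T, BE3C, CASM3C, HDF3CGF, KF3CT, MyoF, Mphg). Compounds were added 1 h before stimulation and left for 24 h (MyoF 48 h; BT 72 h for soluble read-outs or 6 d for IgG). Biomarkers were read by ELISA, cytotoxicity by SRB, PBMC viability and proliferation by Alamar Blue. Each well value was divided by the mean of 8 DMSO control wells on the same plate and log10 transformed; duplicate blinded samples were tested at 4 concentrations.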

[2] = compound: NCC(F)(F)C(F)(F)C(F)(F)C(F)(F)C(F)(F)C(F)(F)C(F)(F)F [1H,1H-Perfluorooctylamine]
Experimental: as §1

[3] = compound: COC(=O)CCC(F)(F)C(F)(F)C(F)(F)C(F)(F)F [Methyl 2H,2H,3H,3H-perfluoroheptanoate]
Experimental: as §1

Perfluoro-1-iodohexane = compound: FC(F)(F)C(F)(F)C(F)(F)C(F)(F)C(F)(F)C(F)(F)I [Perfluoro-1-iodohexane]
Experimental: as §1

Perfluorodecanoic acid = compound: O=C(O)C(F)(F)C(F)(F)C(F)(F)C(F)(F)C(F)(F)C(F)(F)C(F)(F)C(F)(F)C(F)(F)F [Perfluorodecanoic acid]
Experimental: as §1

Perfluoropropanoic acid = compound: O=C(O)C(F)(F)C(F)(F)F [Perfluoropropanoic acid]
Experimental: as §1

[4] = compound: FC(F)(F)C(F)(C(F)(F)F)C(F)(F)C(F)(F)CC1CO1 [3-(Perfluoro-3-methylbutyl)-1,2-propenoxide]
Experimental: as §1

Test System | level (log10) ([1]; 6700 nM) | level (log10) ([1]; 20000 nM) | level (log10) ([1]; 60000 nM) | level (log10) ([2]; 6700 nM) | level (log10) ([2]; 20000 nM) | level (log10) ([2]; 60000 nM) | level (log10) ([3]; 6700 nM) | level (log10) ([3]; 20000 nM) | level (log10) ([3]; 60000 nM) | level (log10) (Perfluoro-1-iodohexane; 6700 nM) | level (log10) (Perfluoro-1-iodohexane; 20000 nM) | level (log10) (Perfluoro-1-iodohexane; 60000 nM) | level (log10) (Perfluorodecanoic acid; 6700 nM) | level (log10) (Perfluorodecanoic acid; 20000 nM) | level (log10) (Perfluoropropanoic acid; 6700 nM) | level (log10) (Perfluoropropanoic acid; 20000 nM) | level (log10) (Perfluoropropanoic acid; 60000 nM) | level (log10) ([4]; 6700 nM) | level (log10) ([4]; 20000 nM)
3C:CD87/uPAR | -0.001 ± 0.04 | -0.009 ± 0.041 | -0.023 ± 0.033 | -0.009 ± 0.023 | -0.017 ± 0.025 | -0.006 ± 0.0057 | -0.028 ± 0.047 | -0.022 ± 0.072 | 0.0015 ± 0.077 | -0.0125 ± 0.032 | 0.004 ± 0.0071 | 0.0285 ± 0.0035 | 0.011 ± 0.02 | -0.01 ± 0.02 | -0.008 ± 0.011 | -0.005 ± 0.011 | 0.0125 ± 0.013 | -0.0085 ± 0.00071 | -0.003 ± 0.0028
3C:CXCL8/IL-8 | -0.0055 ± 0.015 | 0.007 ± 0.013 | 0.043 ± 0.034 | -0.02 ± 0.0085 | -0.0125 ± 0.00071 | 0.0085 ± 0.046 | -0.021 ± 0.023 | -0.0045 ± 0.021 | 0.012 ± 0.03 | -0.014 ± 0.064 | -0.01 ± 0.065 | 0.0365 ± 0.079 | 0.009 ± 0.013 | 0.0155 ± 0.021 | 0.007 ± 0.03 | -0.001 ± 0.02 | 0.0255 ± 0.047 | -0.0065 ± 0.018 | 0.008 ± 0.014
3C:CXCL9/MIG | -0.0015 ± 0.0078 | -0.0085 ± 0.0021 | 0.0105 ± 0.0035 | 0.0025 ± 0.0021 | -0.021 ± 0.0042 | -0.0205 ± 0.005 | -0.011 ± 0.011 | -0.0115 ± 0.012 | -0.0055 ± 0.015 | 0.0045 ± 0.025 | 0.007 ± 0.014 | 0.0075 ± 0.029 | 0.002 | 0.0005 ± 0.0064 | -0.0005 ± 0.012 | 0.0025 ± 0.0064 | 0.0075 ± 0.019 | -0.011 ± 0.0042 | -0.0025 ± 0.005
3C:HLA-DR | 0.0145 ± 0.044 | -0.0035 ± 0.005 | 0.002 ± 0.016 | 0.004 ± 0.047 | 0.023 ± 0.057 | 0.023 ± 0.041 | -0.026 ± 0.0071 | 0.03 ± 0.027 | 0.0085 ± 0.032 | 0.0025 ± 0.0035 | -0.011 ± 0.0057 | -0.001 ± 0.017 | -0.0035 ± 0.0021 | -0.006 ± 0.013 | -0.003 ± 0.0028 | 0.0035 ± 0.0035 | 0.011 ± 0.011 | 0.0085 ± 0.00071 | 0.018 ± 0.018
3C:Proliferation | -0.0195 ± 0.05 | 0.002 ± 0.098 | -0.0325 ± 0.046 | 0.004 ± 0.05 | 0.004 ± 0.047 | -0.0485 ± 0.063 | -0.035 ± 0.0028 | -0.029 ± 0.018 | 0.018 ± 0.03 | -0.0215 ± 0.0064 | -0.0205 ± 0.013 | -0.041 ± 0.041 | 0.0395 ± 0.032 | 0.0005 ± 0.044 | 0.019 ± 0.016 | 0.024 ± 0.073 | -0.051 ± 0.083 | -0.014 ± 0.016 | -0.002 ± 0.042
3C:SRB | 0.0005 ± 0.011 | -0.0075 ± 0.015 | -0.017 ± 0.024 | 0.0005 ± 0.0035 | 0.002 ± 0.0071 | 0.0045 ± 0.046 | 0.0125 ± 0.036 | 0.0085 ± 0.028 | -0.004 ± 0.016 | -0.0035 ± 0.00071 | -0.0155 ± 0.00071 | -0.0155 ± 0.0021 | 0.0095 ± 0.0021 | -0.005 ± 0.0042 | -0.0115 ± 0.0035 | -0.009 ± 0.0028 | -0.0065 ± 0.0021 | 0.0045 ± 0.0064 | -0.01 ± 0.0057
4H:CCL2/MCP-1 | 0 | -0.0255 ± 0.005 | 0.0155 ± 0.059 | 0.0075 ± 0.028 | -0.0195 ± 0.018 | 0.01 ± 0.044 | -0.048 ± 0.033 | -0.0435 ± 0.025 | 0.0125 ± 0.023 | 0.0085 ± 0.015 | -0.008 ± 0.0028 | 0.0145 ± 0.029 | -0.014 ± 0.0057 | -0.0255 ± 0.03 | -0.0455 ± 0.022 | -0.0145 ± 0.039 | 0.0285 ± 0.039 | -0.038 ± 0.013 | 0.001 ± 0.042
4H:CCL26/Eotaxin-3 | 0.0175 ± 0.042 | -0.023 ± 0.0057 | -0.0135 ± 0.00071 | 0.0225 ± 0.022 | 0.008 ± 0.0014 | 0.028 ± 0.023 | -0.0075 ± 0.0064 | 0.0175 ± 0.0078 | 0.0025 ± 0.005 | 0.014 ± 0.013 | 0.016 ± 0.017 | 0.016 ± 0.021 | -0.0085 ± 0.011 | -0.0305 ± 0.011 | -0.0115 ± 0.0092 | -0.0045 ± 0.012 | -0.015 ± 0.017 | -0.002 ± 0.018 | 0.013 ± 0.013
4H:CD62P/P-selectin | 0.001 ± 0.021 | 0.0165 ± 0.012 | 0.048 ± 0.033 | 0.0025 ± 0.019 | -0.028 ± 0.021 | -0.0525 ± 0.047 | -0.0325 ± 0.071 | -0.017 ± 0.064 | 0.0135 ± 0.053 | 0.034 ± 0.028 | -0.012 ± 0.11 | 0.0625 ± 0.14 | 0.087 ± 0.0071 | 0.093 ± 0.033 | -0.0215 ± 0.0021 | -0.012 ± 0.0042 | 0.0105 ± 0.026 | -0.0085 ± 0.0064 | 0.0305 ± 0.012
4H:CD87/uPAR | -0.004 ± 0.03 | -0.013 ± 0.0028 | -0.0075 ± 0.0035 | -0.0235 ± 0.023 | -0.0215 ± 0.033 | 0.003 ± 0.014 | 0.0005 ± 0.019 | 0.021 ± 0.042 | 0.0065 ± 0.033 | -0.0035 ± 0.053 | 0.017 ± 0.062 | 0.036 ± 0.12 | 0.0115 ± 0.021 | 0.0135 ± 0.0092 | -0.0325 ± 0.025 | -0.014 ± 0.011 | 0.0085 ± 0.016 | -0.005 ± 0.027 | 0.0075 ± 0.04
4H:CD106/VCAM-1 | 0.0075 ± 0.011 | -0.019 ± 0.0028 | -0.011 ± 0.025 | 0 ± 0.023 | -0.041 ± 0.027 | -0.034 ± 0.0085 | -0.021 ± 0.0071 | 0.01 ± 0.035 | 0.011 ± 0.013 | 0.013 ± 0.03 | 0.01 ± 0.034 | 0.014 ± 0.068 | 0.0165 ± 0.0092 | 0.0185 ± 0.029 | -0.0085 ± 0.011 | -0.0075 ± 0.00071 | 0 ± 0.014 | 0.0245 ± 0.043 | 0.0215 ± 0.042
4H:SRB | -0.0085 ± 0.021 | -0.008 ± 0.023 | -0.0275 ± 0.019 | -0.003 ± 0.0042 | 0.0005 ± 0.011 | 0.003 ± 0.042 | 0.0075 ± 0.022 | 0.006 ± 0.0057 | -0.017 ± 0.0099 | -0.0065 ± 0.011 | -0.008 ± 0.0042 | -0.0105 ± 0.0035 | 0.003 ± 0.0099 | -0.0055 ± 0.00071 | 0 ± 0.0028 | -0.002 ± 0.0071 | 0.0095 ± 0.0092 | 0 ± 0.025 | -0.019 ± 0.0071
4H:VEGFR2 | -0.0575 ± 0.015 | -0.056 ± 0.037 | -0.0215 ± 0.088 | 0.0225 ± 0.015 | -0.012 ± 0.0042 | -0.017 ± 0.0085 | 0.0325 ± 0.013 | 0.0435 ± 0.03 | 0.0495 ± 0.069 | 0.0075 ± 0.0092 | 0.006 ± 0.02 | 0.004 ± 0.023 | -0.007 ± 0.017 | -0.01 ± 0.02 | -0.0375 ± 0.026 | -0.011 ± 0.04 | 0.049 ± 0.042 | -0.001 ± 0.014 | 0.0245 ± 0.026
BE3C:CD54/ICAM-1 | -0.0095 ± 0.022 | -0.014 ± 0.024 | -0.0245 ± 0.005 | 0.009 ± 0.0099 | -0.0045 ± 0.012 | 0.017 ± 0.034 | -0.0075 ± 0.0092 | 0.0105 ± 0.018 | 0.002 ± 0.011 | -0.006 ± 0.0014 | -0.0125 ± 0.015 | -0.005 ± 0.014 | 0.085 | -1.02 ± 0.012 | -0.025 ± 0.017 | 0 ± 0.0014 | 0.007 ± 0.016 | -0.0095 ± 0.019 | -0.0065 ± 0.0092
BE3C:CD87/uPAR | -0.016 ± 0.033 | 0.001 ± 0.031 | 0.0275 ± 0.035 | 0.0025 ± 0.0021 | -0.0035 ± 0.012 | 0.008 ± 0.0099 | -0.003 ± 0.0014 | -0.0005 ± 0.00071 | -0.0185 ± 0.022 | 0.0165 ± 0.018 | 0.0035 ± 0.00071 | 0.0465 ± 0.026 | 0.05 ± 0.016 | -0.554 ± 0.011 | -0.018 ± 0.0085 | -0.026 ± 0.0085 | 0.01 ± 0.0014 | 0.01 ± 0.011 | -0.008 ± 0.0057
